Test results reported in patent EP4768482A1, “THIOBENZIMIDAZOLE DERIVATIVE OR PHARMACEUTICALLY ACCEPTABLE SALT THEREOF, AND USE THEREOF” (Korea University Research and Business Foundation, priority 2023, dated 2025).

Test system: MDA-MB-231
Test: MTS cell viability assay, MDA-MB-231 breast cancer cell line
Type: cell-based
Details: Homo sapiens, MDA-MB-231 cell line, 0-10 µM, 72 hours
Protocol: MDA-MB-231 (Cell seeding numbers: 0.8(M231) x 10^4 cells/wells (confluency ≧ 25%), which is a human triple-negative breast cancer (TNBC) cell line, and JIMT-1 (Cell seeding numbers: 0.8(JIMT) x 10^4 cells/wells (confluency ≧ 25%)), which is a HER2 positive breast cancer (HER2+ BC) cell line, were used in the experiment.
The above cell lines were cultured in an environment of 5% CO2 and 37°C in a Dulbecco's modified Eagle's medium (DMEM) including a 10% fetal bovine serum (FBS), a streptomycin-penicillin (100 U/mL), and a Fungizone (0.625 µg/mL), respectively.
The human breast cancer cell lines MDA-MB-231 and JIMT-1 were treated with thiobenzimidazole derivatives of Formulas 1-1 to 1-10 at concentrations of 0, 0.5, 1, and 5 µM, respectively, for 72 hours, and then cell viability was measured using the MTS assay technique. In the MTS assay, cells were attached to a 96-well plate for 24 hours, treated with the thiobenzimidazole derivative for 72 hours, developed with MTS (3-(4,5-dimethylthiazol-2-yl)-5-(3-carboxymethoxyphenyl)-2-(4-sulfophenyl)-2H-tetrazolium) for 4 hours, and then absorbance was measured at 490 nm using a Spectramax Plus384 microplate analyzer. The results are illustrated in FIG. 1, and as illustrated in the drawing, it was confirmed that the thiobenzimidazole derivatives of Formula 1-1 to 1-10 inhibited cell viability in a concentration-dependent manner in the human breast cancer cell lines MDA-MB-231 and JIMT-1.
The MDA-MB-231 and JIMT-1 cell lines were treated with thiobenzimidazole derivatives (Formula 1-1 to 1-4) of the disclosure at concentrations of 0, 0.01, 0.05, 0.1, 0.25, 0.5, 1, 5, and 10 µM, respectively, and then cell viability and IC50 values therefrom were confirmed. The preparation method of the cell lines and the experimental method were the same as those performed in Example 1.

IC50 | Structure (SMILES)
592 nM | COC(=O)Nc1nc2cc(Sc3ccc(N4CCC(N5CCOCC5)CC4)cc3)ccc2[nH]1 [Formula 1-1, Methyl (5-((4-(4-morpholinopiperidin-1-yl)phenyl)thio)-1H-benzo[d]imidazol-2-yl)carbamate]
174 nM | COC(=O)Nc1nc2cc(Sc3ccc(N4CCOCC4)c(F)c3)ccc2[nH]1 [Formula 1-2, Methyl (5-((3-fluoro-4-morpholinophenyl)thio)-1H-benzo[d]imidazol-2-yl)carbamate]
583 nM | COC(=O)Nc1nc2cc(Sc3ccc(N4CCN(C)CC4)c(F)c3)ccc2[nH]1 [Formula 1-3, Methyl (5-((3-fluoro-4-(4-methylpiperazin-1-yl)phenyl)thio)-1H-benzo[d]imidazol-2-yl)carbamate]
135 nM | COC(=O)Nc1nc2cc(Sc3ccc(N4CCC(O)CC4)nc3)ccc2[nH]1 [Formula 1-4, Methyl (5-((6-(4-hydroxypiperidin-1-yl)pyridin-3-yl)thio)-1H-benzo[d]imidazol-2-yl)carbamate]
